PMC6815956, “Bioinspired Self-assembling Peptide Hydrogel with Proteoglycan-assisted Growth Factor Delivery for Therapeutic Angiogenesis” (Theranostics, 2019)
Each block holds one substance with its values, some of them ahead of it.

Experiments:
[1] = Isothermal titration calorimetry, binding of HS to LRK; settings: ITC, 25 °C, PBS
Description: Isothermal titration calorimetry (ITC) measurements were operated at 25 °C using a Micro ITC-200 microcalorimeter (GE Healthcare Life Sciences). The procedure was performed by titrating 0.35 mM HS from a syringe into 0.2 mM RADA16-LRK peptide solution loaded in a cell (both in PBS). In the next step, the data were integrated after background correction and fitted to a curve to obtain the binding constant.
To test the binding affinity between HS and […] peptide sequence, the molecular interactions between LRK sequence and HS were studied by ITC. Heat changes were recorded when the increments of HS solution were titrated drop by drop into functionalized peptide LRK solution. The binding constant Ka = [drawing 5] M^-1 was then obtained by approximating the integrated data into a fitting curve (Figure 4A).

[2] = compared with VEGF; ref [20]; cited from earlier work
HUVECs = assay: Endothelial tube-like formation assay; assay type: cell-based, human; settings: GF released from hydrogel (200 ng, 3 days), 8 h, n = 8, vs basal medium
Description: To identify the angiogenic ability of released GFs in vitro, 80 µL of GF-depleted peptide hydrogel was introduced to a pre-cooled 96-well plate using chilled pipet tips. The gel was incubated for 30 min at 37 °C with 5 % CO2 to induce gelation. [drawing 4] HUVECs were first seeded on GF-depleted peptide hydrogel with 100 μL of culture medium and incubated for 8 h. […] Finally, the differentiations of HUVECs were observed periodically for 8 h under an inverted phase contrast microscope. Angiogenesis Analyzer ImageJ (NIH) was employed for quantification and the images were taken in ten random fields per sample.
Figure 5 The human umbilical vein endothelial cells (HUVECs) tube-like formation assay. […] (B) The original images were analyzed by Angiogenesis Analyzer for ImageJ (NIH), and the quantified result of total vessels length, total meshes area, total branches intervals were calculated (all the values were normalized with the analyzed area). […] Error bars show ± S.D. for total n = 8.

[3] = GF release profile (ELISA); assay type: physicochemical; settings: from GAG-assisted QLK/LRK hydrogel, PBS w/ 0.05 % Tween 20, 1 % BSA, 37 °C, n = 6
Description: (§1) At specific time intervals, the supernatants were collected, stored at -80 °C, and fresh release buffer was compensated. […] After adding the stop solution, the absorbance of the hydrogel at 450/540 nm was recorded by SpectraMax Plus 384 Microplate Reader.
(§2) It was the major challenge for scaffold-based GF delivery that how to maintain the release rate of incorporated GFs.

[4] = GF loading efficiency (ELISA); assay type: physicochemical; settings: GF/HS complex in QLK/LRK peptide hydrogel, n = 6
Description: as §1, §2

[5] = Shear recovery (continuous step strain); assay type: physicochemical; settings: 1 % strain 60 s, 50 % strain 30 s, three cycles, 25 °C, n = 6
Description: (§3) The mechanical properties of the hydrogel scaffold were measured using a rheometer (Anton Paar, US). Measurements for the dynamic oscillatory frequency sweep (0.1-100 Hz) were performed at 1% strain amplitude and 25 °C. Shear recovery (1 % strain for 60 s, 50 % strain for 30 s, 1 % strain for 60 s) was conducted for three cycles at 25 °C. All measurements were performed on a 25-mm cone plate and the Anton Paar Rheometer software was used for analysis.
(§4) To test the mechanical stability and stiffness of the peptide hydrogel, frequency sweep and shear recovery measurements were conducted. […] The storage modulus (G') of QLK hydrogel increased from 1000 Pa to 5000 Pa, while the G' of QLK/LRK hydrogel increased from 400 Pa to 2500 Pa (Figure 3A-B). At least a five-fold enhancement in rheological stiffness and the mechanical properties of QLK-functionalized hydrogel were adjustable with mTG treatment. The concentration of transglutaminase also had influence on the mechanical properties of the hydrogel. Basically, the storage modulus (G') of the hydrogel was increased with the increase of mTG concentration. It was measured at pressure levels of 1 kPa, 1.5 kPa, 3 kPa, 5 kPa with respect to the concentrations of 0 U/mL, 5 U/mL, 10 U/mL, 20 U/mL.

[6] = TEM and AFM of nanofibers; assay type: physicochemical; settings: 0.05 % (w/v); for fiber morphology: TEM
Description: Transmission electron microscopy (TEM) was used to observe the microstructure of peptides with a Hitachi HT7700 (120 kV) Bio-TEM. The 0.05 % (w/v) RADA16-QLK before and after microbial transglutaminase (mTG) crosslinking were prepared at pH 7. The TEM samples were prepared by dropping 10 μL of peptide solution on the copper grid coated with carbon film and stained with 2 % phosphotungstic acid solution. The morphology of the peptide scaffolds was captured using atomic force microscopy (AFM) (DI Dimension 3100, Veeco Instruments Inc, US) in dynamic force mode. In brief, 0.05 % (w/v) peptide solution was sprayed on the surface of a cleaved mica for 5 min, the surface was then washed with sterilized water for several times and blown dry by anhydrous nitrogen.
(§5) TEM images were obtained to identify the morphological change of nanofiber microstructure before and after enzymatic crosslinking. […] From the findings of TEM and AFM images, the interwoven nanofibers with diameters of 10-20 nm and pore sizes between 10-200 nm were similar to natural ECM fibers in both appearances and scales (Figure 2B-E).

[7] = In vitro disintegration in PBS (ninhydrin); assay type: physicochemical; settings: 2 % (w/v) hydrogel, 37 °C, ninhydrin 570 nm, n = 6; for total disintegration in PBS: 35 days; for disintegration in PBS: first three days
Description: (§6) The 2 % (w/v) RADA16-QLK and RADA16-LRK peptide solutions were mixed in a volume ratio of 3:1, and then introduced into a self-made cylinder mold. PBS buffer or cell culture medium was further added to trigger sol-gel transition. For the crosslinking process, the self-assembled cylindrical hydrogel was soaked into mTG solution (20 U/mL PBS) for 12 h at 38 °C. 40 µL of peptide hydrogel was transferred into a 96-well plate followed by 200 µL of PBS added to each well and incubated at 37 °C. At predetermined time points (3, 12, 24, 72, 168, 336, 504, 672, and 840 h), the supernatant was completely removed by syringe and replenished with fresh PBS. The collected supernatant was then stored at -80 °C for further tests. Ninhydrin reagent solution was employed to quantify the disintegrated peptide amino acid sequences of the hydrogel according to manufacturer's protocols. After the addition of 95 % ethanol to stop the reaction, the absorbance of the hydrogel at 570 nm was measured by a SpectraMax Plus 384 Microplate Reader.
To evaluate the stability of the peptide hydrogel in PBS buffer, Ninhydrin reagent solution was used to quantify the disintegration rate of peptide hydrogel in vitro. […] After this initial period of rapid disintegration, the kinetics slowed down. […] The disintegration rate of hydrogel was slower in the crosslinking group when compared with that in the non-crosslinking group during the investigative time period. Next, we are interested in figuring out if different culture condition will result in different peptide disintegration rate. Thus, another group of peptides incubated in cell culture medium was also conducted for comparison.

[8] = Oscillatory rheology, frequency sweep; assay type: physicochemical; settings: for storage modulus (G'): frequency sweep, 1 % strain
Description: as §3, §6, §4
Figure 3 Rheological properties of peptide hydrogel.

[9] = In vitro disintegration in cell culture medium; assay type: physicochemical; settings: 2 % (w/v) hydrogel, with and without mTG (20 U/mL), n = 6
Description: as §6
To evaluate the stability of the peptide hydrogel in PBS buffer, Ninhydrin reagent solution was used to quantify the disintegration rate of peptide hydrogel in vitro. […] After this initial period of rapid disintegration, the kinetics slowed down. […]

[10] = Circular dichroism spectroscopy (secondary structure); assay type: physicochemical; settings: 0.05 % (w/v)
Description: Circular dichroism (CD) spectra were collected on a CD Spectrometer Model 410 (AVIV Biomedical Inc.) to explore the secondary structure of SAPs. The cuvette quartz cell's path length was 1mm with a wavelength range between 190-260 nm at ambient temperature. The 0.05 % (w/v) RADA16-QLK, RADA16-LRK, and HS solution were allowed to store at 4 °C overnight to ensure complete self-assembly before measurement.
as §5

- HS binding (in words) [1]: good HS binding consensus sequence
Substance: AcN-RADARADARADARADAGGLRKKLGKA-CONH

Substance: HGF: Recombinant Human HGF (HEK293 derived); hepatocyte growth factor
- binding affinity with heparin or HS (in words) [2]: higher binding affinity with heparin or HS than VEGF
- tube-like formation of HUVECs (HUVECs): positive effect on tube-like formation of HUVECs
- cumulative release, total ([3]; 28 days, ELISA): approximately 46%
- cumulative release, initial ([3]; day 3, ELISA): 25%
- loading efficiency [4]: ~82.5 ± 2.1%

Substance: VEGF
- tube-like formation of HUVECs (HUVECs): positive effect on tube-like formation of HUVECs

- nanofiber diameter ([6]; TEM and AFM, pH 7): 10-20 nm
- pore size of fibrous network ([6]; TEM and AFM, pH 7): 10-200 nm
- fiber morphology ([6]; pH 7, before enzymatic crosslinking): Sparsely-wired fiber entanglements
- total disintegration in PBS ([7]; mTG-crosslinked (20 U/mL)): approximately 61%
- total disintegration in PBS ([7]; non-crosslinked): ~82%
- disintegration in PBS ([7]; mTG-crosslinked (20 U/mL)): 20%
- disintegration in PBS ([7]; non-crosslinked): 40%
- enhancement of stiffness / storage modulus by mTG ([8]; after vs before mTG, 25 °C): five-fold increase of storage modulus
- storage modulus (G') ([8]; 25 °C, after mTG crosslinking): 5000 Pa
- storage modulus (G') ([8]; 25 °C, before mTG crosslinking): 1000 Pa
- storage modulus (G') vs mTG concentration ([8]; mTG 0 U/mL): 1 kPa
- storage modulus (G') vs mTG concentration ([8]; mTG 5 U/mL): 1.5 kPa
- storage modulus (G') vs mTG concentration ([8]; mTG 10 U/mL): 3 kPa
- storage modulus (G') vs mTG concentration ([8]; mTG 20 U/mL): 5 kPa
- secondary structure by CD ([10]; 4 °C overnight, ambient temperature, without mTG): β-sheet secondary structure
- secondary structure by CD ([10]; after mTG crosslinking): β-sheet secondary structure
- CD negative maximum peak ([10]; after mTG crosslinking): 216 nm
- CD positive maximum peak ([10]; after mTG crosslinking): ~195 nm
- CD negative maximum peak ([10]; without mTG): 216 nm
- CD positive maximum peak ([10]; without mTG): ~195 nm
Substance: AcN-RADARADARADARADAGGQQLK-NH2 [self-assembling peptide with transglutaminase-crosslinkable QQLK motif; forms hydrogel]
- shear thinning / shear recovery [5]: shear thinning and a potential shear recovery ability
- fiber morphology ([6]; pH 7, after mTG (20 U/mL) crosslinking): more densely-compacted nanofibrous entanglements and more continuous self-assembling fibers
- disintegration in cell culture medium vs PBS [9]: degraded faster in the culture medium condition compared to that in PBS, especially in the group without crosslinking
